Experimental data from BindingDB's records for doi:10.1016/S0893-133X(01)00285-8 (Novartis Pharma, 2001).

What was measured:
[1] = target: Delta-type opioid receptor (Homo sapiens, UniProt P41143)
Substance-P receptor = Substance-P receptor (Homo sapiens, UniProt P25103)
[2] = target: Gastrin/cholecystokinin type B receptor (Homo sapiens, UniProt P32239)
Adenosine receptor A1 = Adenosine receptor A1 (Homo sapiens, UniProt P30542)
Adenosine receptor A2a = Adenosine receptor A2a (Homo sapiens, UniProt P29274)
Adenosine receptor A3 = Adenosine receptor A3 (Homo sapiens, UniProt P0DMS8)
[3] = target: 5-hydroxytryptamine receptor 6 (Homo sapiens, UniProt P50406)
[4] = target: Kappa-type opioid receptor (Homo sapiens, UniProt P41145)
Mu-type opioid receptor = Mu-type opioid receptor (Homo sapiens, UniProt P35372)
[5] = target: Sodium-dependent dopamine transporter (Homo sapiens, UniProt Q01959)
[6] = target: Sodium-dependent noradrenaline transporter (Homo sapiens, UniProt P23975)
[7] = target: 5-hydroxytryptamine receptor 7 (Homo sapiens, UniProt P34969)
[8] = target: Beta-2 adrenergic receptor (Homo sapiens, UniProt P07550)
[9] = target: 5-hydroxytryptamine receptor 3A (Homo sapiens, UniProt P46098)
Substance-K receptor = Substance-K receptor (Homo sapiens, UniProt P21452)
Neuromedin-K receptor = Neuromedin-K receptor (Homo sapiens, UniProt P29371)
[10] = target: Muscarinic acetylcholine receptor M3 (Homo sapiens, UniProt P20309)
[11] = target: Alpha-2B adrenergic receptor (Homo sapiens, UniProt P18089)
[12] = target: Alpha-2C adrenergic receptor (Homo sapiens, UniProt P18825)
[13] = target: Muscarinic acetylcholine receptor M2 (Homo sapiens, UniProt P08172)
[14] = target: Muscarinic acetylcholine receptor M1 (Homo sapiens, UniProt P11229)
[15] = target: Corticotropin-releasing factor receptor 2 (Homo sapiens) (UniProt Q13324)
[16] = target: Muscarinic acetylcholine receptor M4 (Homo sapiens, UniProt P08173)
[17] = target: Muscarinic acetylcholine receptor M5 (Homo sapiens, UniProt P08912)
Cannabinoid receptor 1 = Cannabinoid receptor 1 (Homo sapiens, UniProt P21554)
[18] = target: Beta-1 adrenergic receptor (Homo sapiens, UniProt P08588)
[19] = target: Alpha-2A adrenergic receptor (Homo sapiens, UniProt P08913)

Mu-type opioid receptor, sequence (P35372 whole entry): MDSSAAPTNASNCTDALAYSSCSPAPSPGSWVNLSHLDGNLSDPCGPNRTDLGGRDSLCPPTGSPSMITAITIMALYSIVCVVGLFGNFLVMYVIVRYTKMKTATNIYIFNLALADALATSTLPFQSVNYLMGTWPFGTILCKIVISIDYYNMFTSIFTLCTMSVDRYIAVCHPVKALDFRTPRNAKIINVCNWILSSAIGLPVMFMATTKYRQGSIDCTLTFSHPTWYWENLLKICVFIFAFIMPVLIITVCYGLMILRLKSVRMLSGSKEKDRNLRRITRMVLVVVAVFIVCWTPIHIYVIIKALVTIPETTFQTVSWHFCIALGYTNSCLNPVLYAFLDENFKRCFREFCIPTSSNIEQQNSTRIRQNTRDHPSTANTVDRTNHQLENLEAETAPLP
5-hydroxytryptamine receptor 7, sequence (P34969 whole entry): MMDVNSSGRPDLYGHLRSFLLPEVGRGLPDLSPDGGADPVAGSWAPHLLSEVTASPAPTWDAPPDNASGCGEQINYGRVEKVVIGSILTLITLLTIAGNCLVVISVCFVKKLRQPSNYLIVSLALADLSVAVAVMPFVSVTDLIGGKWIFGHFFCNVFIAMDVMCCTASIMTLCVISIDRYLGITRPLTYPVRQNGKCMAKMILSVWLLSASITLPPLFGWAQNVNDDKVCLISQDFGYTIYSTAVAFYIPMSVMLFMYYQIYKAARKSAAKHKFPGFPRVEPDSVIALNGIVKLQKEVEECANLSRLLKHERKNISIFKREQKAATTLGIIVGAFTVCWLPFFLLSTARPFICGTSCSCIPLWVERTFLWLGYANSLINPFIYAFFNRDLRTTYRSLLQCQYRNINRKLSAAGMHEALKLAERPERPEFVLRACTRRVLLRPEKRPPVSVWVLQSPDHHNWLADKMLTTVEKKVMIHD
Muscarinic acetylcholine receptor M5, sequence (P08912 whole entry): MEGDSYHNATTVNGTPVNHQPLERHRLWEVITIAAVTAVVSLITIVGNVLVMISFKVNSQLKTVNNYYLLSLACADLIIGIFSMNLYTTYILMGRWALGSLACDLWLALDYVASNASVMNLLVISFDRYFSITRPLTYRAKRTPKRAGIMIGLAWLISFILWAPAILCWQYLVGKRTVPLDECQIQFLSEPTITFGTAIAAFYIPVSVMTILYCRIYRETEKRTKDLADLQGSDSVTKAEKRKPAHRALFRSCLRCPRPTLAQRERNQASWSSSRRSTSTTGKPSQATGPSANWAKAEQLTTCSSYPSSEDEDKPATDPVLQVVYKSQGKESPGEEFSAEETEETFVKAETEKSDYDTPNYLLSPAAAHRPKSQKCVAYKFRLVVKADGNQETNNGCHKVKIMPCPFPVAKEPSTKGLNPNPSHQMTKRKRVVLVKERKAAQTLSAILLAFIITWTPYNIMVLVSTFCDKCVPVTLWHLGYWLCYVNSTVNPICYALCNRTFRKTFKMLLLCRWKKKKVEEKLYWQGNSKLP
Alpha-2C adrenergic receptor, sequence (P18825 whole entry): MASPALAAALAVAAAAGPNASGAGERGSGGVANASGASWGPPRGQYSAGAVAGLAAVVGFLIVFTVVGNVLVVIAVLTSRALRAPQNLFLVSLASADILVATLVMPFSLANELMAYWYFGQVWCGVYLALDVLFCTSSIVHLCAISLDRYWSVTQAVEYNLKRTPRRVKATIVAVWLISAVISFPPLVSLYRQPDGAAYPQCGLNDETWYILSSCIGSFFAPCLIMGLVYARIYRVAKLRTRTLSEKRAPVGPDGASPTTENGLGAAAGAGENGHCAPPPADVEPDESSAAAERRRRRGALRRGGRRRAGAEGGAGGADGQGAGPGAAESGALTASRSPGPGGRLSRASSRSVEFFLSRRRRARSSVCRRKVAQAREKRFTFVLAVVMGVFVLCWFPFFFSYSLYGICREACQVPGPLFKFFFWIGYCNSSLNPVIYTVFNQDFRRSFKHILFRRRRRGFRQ
Adenosine receptor A3, sequence (P0DMS8 whole entry): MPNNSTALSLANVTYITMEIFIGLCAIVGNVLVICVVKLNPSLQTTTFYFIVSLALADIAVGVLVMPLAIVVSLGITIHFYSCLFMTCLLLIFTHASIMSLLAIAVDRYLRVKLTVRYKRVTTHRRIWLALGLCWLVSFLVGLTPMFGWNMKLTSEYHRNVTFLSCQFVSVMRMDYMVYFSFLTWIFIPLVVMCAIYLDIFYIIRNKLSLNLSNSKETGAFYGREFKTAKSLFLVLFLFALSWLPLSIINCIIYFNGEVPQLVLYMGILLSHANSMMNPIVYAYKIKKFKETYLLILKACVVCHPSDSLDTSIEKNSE
Adenosine receptor A1, sequence (P30542 whole entry): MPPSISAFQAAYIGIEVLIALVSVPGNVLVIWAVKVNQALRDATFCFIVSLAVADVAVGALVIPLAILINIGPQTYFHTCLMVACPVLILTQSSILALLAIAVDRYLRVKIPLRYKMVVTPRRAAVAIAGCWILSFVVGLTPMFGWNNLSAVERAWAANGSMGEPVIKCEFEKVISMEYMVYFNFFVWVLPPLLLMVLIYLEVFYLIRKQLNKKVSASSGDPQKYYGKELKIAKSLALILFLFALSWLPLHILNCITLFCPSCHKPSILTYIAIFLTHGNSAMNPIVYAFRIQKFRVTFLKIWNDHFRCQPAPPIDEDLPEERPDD
Sodium-dependent dopamine transporter, sequence (Q01959 whole entry): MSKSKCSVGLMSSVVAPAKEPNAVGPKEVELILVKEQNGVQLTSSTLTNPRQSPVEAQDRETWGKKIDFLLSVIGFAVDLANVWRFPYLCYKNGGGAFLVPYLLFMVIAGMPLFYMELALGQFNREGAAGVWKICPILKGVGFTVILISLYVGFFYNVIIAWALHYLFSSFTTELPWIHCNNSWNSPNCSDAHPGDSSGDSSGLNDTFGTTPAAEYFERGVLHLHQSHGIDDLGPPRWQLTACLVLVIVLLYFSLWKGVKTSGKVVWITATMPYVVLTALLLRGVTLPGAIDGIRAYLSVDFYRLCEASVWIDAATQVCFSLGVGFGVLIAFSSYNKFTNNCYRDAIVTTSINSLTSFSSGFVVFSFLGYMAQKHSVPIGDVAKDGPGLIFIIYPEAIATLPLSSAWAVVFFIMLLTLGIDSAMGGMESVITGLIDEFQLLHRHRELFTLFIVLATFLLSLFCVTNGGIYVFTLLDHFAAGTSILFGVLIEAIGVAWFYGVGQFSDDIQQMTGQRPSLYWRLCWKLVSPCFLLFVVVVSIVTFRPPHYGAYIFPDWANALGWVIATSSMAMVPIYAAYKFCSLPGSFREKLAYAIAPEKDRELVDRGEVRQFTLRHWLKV
Beta-2 adrenergic receptor, sequence (P07550 whole entry): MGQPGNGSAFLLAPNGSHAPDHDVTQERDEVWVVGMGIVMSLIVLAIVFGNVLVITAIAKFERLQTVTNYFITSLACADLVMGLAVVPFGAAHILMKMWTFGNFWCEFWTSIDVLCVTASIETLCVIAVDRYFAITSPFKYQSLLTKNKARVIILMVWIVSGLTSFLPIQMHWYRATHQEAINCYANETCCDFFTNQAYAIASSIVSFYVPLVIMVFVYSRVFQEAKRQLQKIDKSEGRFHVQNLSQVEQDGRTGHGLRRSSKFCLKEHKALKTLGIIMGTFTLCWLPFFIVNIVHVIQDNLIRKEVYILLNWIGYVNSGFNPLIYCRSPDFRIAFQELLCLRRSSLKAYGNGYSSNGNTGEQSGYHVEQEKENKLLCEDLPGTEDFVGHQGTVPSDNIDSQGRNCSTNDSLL
Delta-type opioid receptor, sequence (P41143 whole entry): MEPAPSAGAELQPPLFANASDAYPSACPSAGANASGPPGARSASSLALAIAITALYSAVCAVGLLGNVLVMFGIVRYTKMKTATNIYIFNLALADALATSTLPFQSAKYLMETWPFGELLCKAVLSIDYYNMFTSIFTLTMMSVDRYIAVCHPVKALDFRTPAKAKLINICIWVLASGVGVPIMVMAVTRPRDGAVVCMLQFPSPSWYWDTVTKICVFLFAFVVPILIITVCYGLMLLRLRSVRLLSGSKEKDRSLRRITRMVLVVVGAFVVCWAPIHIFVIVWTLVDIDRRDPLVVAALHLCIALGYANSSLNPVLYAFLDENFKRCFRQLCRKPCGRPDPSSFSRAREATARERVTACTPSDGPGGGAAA
Neuromedin-K receptor, sequence (P29371 whole entry): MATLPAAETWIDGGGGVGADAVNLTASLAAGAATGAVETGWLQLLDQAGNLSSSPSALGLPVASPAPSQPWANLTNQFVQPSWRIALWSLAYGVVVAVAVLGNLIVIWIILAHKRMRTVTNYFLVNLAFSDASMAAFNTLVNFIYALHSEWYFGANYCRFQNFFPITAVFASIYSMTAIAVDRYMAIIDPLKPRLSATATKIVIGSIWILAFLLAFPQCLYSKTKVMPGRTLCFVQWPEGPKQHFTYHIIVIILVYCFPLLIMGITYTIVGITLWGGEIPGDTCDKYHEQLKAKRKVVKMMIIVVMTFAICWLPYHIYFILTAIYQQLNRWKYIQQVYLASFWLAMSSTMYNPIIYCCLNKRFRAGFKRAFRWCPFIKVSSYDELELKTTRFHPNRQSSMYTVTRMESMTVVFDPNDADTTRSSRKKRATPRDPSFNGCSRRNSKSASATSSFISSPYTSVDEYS
Substance-K receptor, sequence (P21452 whole entry): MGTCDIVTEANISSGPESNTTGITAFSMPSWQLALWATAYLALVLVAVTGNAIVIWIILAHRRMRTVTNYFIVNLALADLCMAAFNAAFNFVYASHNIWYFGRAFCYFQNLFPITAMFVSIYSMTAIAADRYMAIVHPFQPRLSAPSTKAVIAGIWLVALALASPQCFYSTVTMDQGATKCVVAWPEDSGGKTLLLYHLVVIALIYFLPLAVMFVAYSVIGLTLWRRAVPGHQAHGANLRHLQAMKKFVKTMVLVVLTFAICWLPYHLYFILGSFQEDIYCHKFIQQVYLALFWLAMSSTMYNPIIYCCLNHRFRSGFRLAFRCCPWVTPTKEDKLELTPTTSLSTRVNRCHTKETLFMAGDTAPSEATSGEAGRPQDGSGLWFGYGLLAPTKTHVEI

COc1cc(C(C)=O)ccc1OCCCN1CCC(c2noc3cc(F)ccc23)CC1
Ki [1]: > 10 µM | Ki (Substance-P receptor): > 10 µM | Ki [2]: 9.33 µM | Ki (Adenosine receptor A1): > 10 µM | Ki (Adenosine receptor A2a): > 10 µM | Ki (Adenosine receptor A3): > 10 µM | Ki [3]: 0.0631 µM | Ki [4]: > 10 µM | Ki (Mu-type opioid receptor): > 10 µM | Ki [5]: 2.95 µM | Ki [6]: 1.48 µM | Ki [7]: 0.112 µM | Ki [8]: > 10 µM | Ki [9]: > 10 µM | Ki (Substance-K receptor): > 10 µM | Ki (Neuromedin-K receptor): > 10 µM | Ki [10]: > 10 µM | Ki [11]: 0.162 µM | Ki [12]: 0.0162 µM | Ki [13]: 3.31 µM | Ki [14]: 4.9 µM | Ki [15]: > 10 µM | Ki [16]: 8.32 µM | Ki [17]: > 10 µM | Ki (Cannabinoid receptor 1): > 10 µM | Ki [18]: > 10 µM | Ki [19]: 0.162 µM
